Data as given in the supplement of paper PMC13380429.

How the values were obtained:
Conditions in all cases: 72 h
[1] = system: Caco-2; assay: cell viability relative to DMSO; higher = less toxic
[2] = system: Calu-3; assay: as above
[3] = system: HepG2; assay: as above
[4] = system: U2OS; assay: as above
[5] = system: Vero E6; assay: as above
[6] = system: Caco-2; assay: relative viability EC50 (midpoint between 100% and the lowest measured viability); higher = less toxic
[7] = system: Calu-3; assay: as above
[8] = system: HepG2; assay: as above
[9] = system: U2OS; assay: as above
[10] = system: Vero E6; assay: as above
[11] = system: Caco-2; assay: drug sensitivity score (DSS) for viability; higher = more toxic; extreme values may be limits of the assay
[12] = system: Calu-3; assay: as above
[13] = system: HepG2; assay: as above
[14] = system: U2OS; assay: as above
[15] = system: Vero E6; assay: as above

SMILES | cell viability ([1]; 1 nM) | cell viability ([1]; 10 nM) | cell viability ([1]; 100 nM) | cell viability ([1]; 1000 nM) | cell viability ([1]; 10000 nM) | cell viability ([2]; 1 nM) | cell viability ([2]; 10 nM) | cell viability ([2]; 100 nM) | cell viability ([2]; 1000 nM) | cell viability ([2]; 10000 nM) | cell viability ([3]; 1 nM) | cell viability ([3]; 10 nM) | cell viability ([3]; 100 nM) | cell viability ([3]; 1000 nM) | cell viability ([3]; 10000 nM) | cell viability ([4]; 1 nM) | cell viability ([4]; 10 nM) | cell viability ([4]; 100 nM) | cell viability ([4]; 1000 nM) | cell viability ([4]; 10000 nM) | cell viability ([5]; 1 nM) | cell viability ([5]; 10 nM) | cell viability ([5]; 100 nM) | cell viability ([5]; 1000 nM) | cell viability ([5]; 10000 nM) | relative viability EC50 [6] | relative viability EC50 [7] | relative viability EC50 [8] | relative viability EC50 [9] | relative viability EC50 [10] | drug sensitivity score [11] | drug sensitivity score [12] | drug sensitivity score [13] | drug sensitivity score [14] | drug sensitivity score [15]
CC(=O)Nc1ccc(Cc2ccc(NC(C)=O)cc2)cc1 [FH1] | 107% | 100% | 104% | 93.7% | 102% | 95.7% | 99.9% | 84.2% | 92.8% | 104% | 99.5% | 104% | 107% | 102% | 96.8% | 98.8% | 96.6% | 99.4% | 104% | 103% | 99.8% | 98.1% | 96.8% | 102% | 98.9% | > 10 µM | > 10 µM | > 10 µM | > 10 µM | > 10 µM | 0 | 0 | 0 | 0 | 0
CC(C)OC(=O)c1cc2c(OC[C@@H](O)CNC(C)(C)C)cccc2[nH]1 | 92.3% | 93% | 105% | 89.5% | 103% | 114% | 102% | 91.6% | 108% | 91.3% | 98.2% | 103% | 102% | 95.7% | 90.4% | 96.1% | 99.3% | 96.1% | 98.3% | 91.9% | 101% | 102% | 99.6% | 93.4% | 94.2% | > 10 µM | > 10 µM | > 10 µM | > 10 µM | > 10 µM | 0 | 0 | 0 | 0 | 0
CC(=O)Nc1nnc(S(N)(=O)=O)s1 [acetazolamide] | 97.5% | 97.7% | 95.2% | 96.6% | 92.4% | 103% | 104% | 97.5% | 99.2% | 94.3% | 105% | 103% | 105% | 105% | 98% | 103% | 101% | 95.7% | 104% | 97.2% | 102% | 101% | 97.9% | 89.9% | 99.9% | > 10 µM | > 10 µM | > 10 µM | > 10 µM | > 10 µM | 0 | 0 | 0 | 0 | 0
CC(CNS(=O)(=O)C(C)C)c1ccc(-c2ccc(C#N)cc2)cc1 (centres undefined) | 98% | 106% | 97.7% | 104% | 80.8% | 93.8% | 97.6% | 102% | 108% | 90.4% | 111% | 117% | 104% | 98.9% | 30.5% | 103% | 102% | 99.2% | 101% | 85.8% | 109% | 99.9% | 106% | 97.7% | 98.6% | > 10 µM | > 10 µM | 3.06 µM | > 10 µM | > 10 µM | 0.4 | 0 | 4 | 0.1 | 0
COc1cc2c(cc1OC)CC(=O)N(CCCN(C)C[C@H]1Cc3cc(OC)c(OC)cc31)CC2 [ivabradine] | 98.3% | 85.6% | 102% | 100% | 99.8% | 111% | 85.1% | 98.4% | 101% | 105% | 109% | 113% | 98.2% | 102% | 89.3% | 106% | 102% | 99.6% | 99.1% | 101% | 101% | 99.7% | 100% | 107% | 99.4% | > 10 µM | > 10 µM | > 10 µM | > 10 µM | > 10 µM | 0 | 0 | 0 | 0 | 0
O=C1c2c(O)cc(O)cc2O[C@H](c2ccc(O)c(O)c2)[C@H]1O [taxifolin] | 91.5% | 106% | 105% | 104% | 96% | 101% | 110% | 90.1% | 102% | 99.5% | 101% | 94.4% | 98.5% | 100% | 97.5% | 95.2% | 96.5% | 92.9% | 96.2% | 89.9% | 94.4% | 99.4% | 94.2% | 97.6% | 104% | > 10 µM | > 10 µM | > 10 µM | > 10 µM | > 10 µM | 0 | 0 | 0 | 0 | 0
CN(Cc1ccccc1)C(=O)[C@H](Cc1ccc2ccccc2c1)NC(=O)[C@@H]1C[C@@H](O)CN1C(=O)c1cn(C)c2ccccc12 [FK-888] | 99.7% | 105% | 99.2% | 94.7% | 69.3% | 99.3% | 94% | 90.6% | 90.5% | 86.7% | 106% | 111% | 106% | 93% | 82.3% | 103% | 98.7% | 98.5% | 103% | 87.2% | 105% | 103% | 101% | 95.2% | 99% |  | > 10 µM | > 10 µM | > 10 µM | > 10 µM | 2.2 | 0.6 | 1.1 | 0 | 0
